Data taken from patent EP2790511B1 (Merck Sharp & Dohme Corp., priority 2011, dated 2013).

These compounds were tested against T1, hROMK (hKir1.1) (Homo sapiens, UniProt P48048) (assay: Thallium Flux Assay). Conditions: HEK293 cells stably expressing hROMK (hKir1.1), FLIPR-Tetra; read-out: Thallium Flux IC50.
T1 construct: expressed in transfected cells
T1 sequence (P48048 1-391): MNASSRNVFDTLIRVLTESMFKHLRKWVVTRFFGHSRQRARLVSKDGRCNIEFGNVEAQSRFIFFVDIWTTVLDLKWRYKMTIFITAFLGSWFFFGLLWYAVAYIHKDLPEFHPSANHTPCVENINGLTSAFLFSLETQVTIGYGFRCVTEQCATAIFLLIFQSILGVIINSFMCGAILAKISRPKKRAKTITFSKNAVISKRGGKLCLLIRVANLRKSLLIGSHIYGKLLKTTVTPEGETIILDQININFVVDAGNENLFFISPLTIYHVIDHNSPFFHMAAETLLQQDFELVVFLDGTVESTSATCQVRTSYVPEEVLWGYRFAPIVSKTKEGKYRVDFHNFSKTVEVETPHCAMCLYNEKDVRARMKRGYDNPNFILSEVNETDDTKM
Assay type: cell-based
In short: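 HEK293 cells stably expressing hROMK, loaded with FluxOR dye 90 min at ambient temperature, then compound 30 min with 0.3 mM ouabain in probenecid buffer pH 7.4.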
Work on COc1cc([C@H]2CN3CCN(C(=O)Cc4ccc(-n5cnnn5)nc4)C[C@H]3CO2)cc(F)c1C#N [Example 113, 2-fluoro-6-methoxy-4-[(3S,9aS)-8-{[6-(1H-tetrazol-1-vl)pvridin-3-yl]acetyl}octahydropyrazino[2,1-c][1,4]oxazin-3-yl]benzonitrile] yielded an IC50 of 120 nM.
Cc1c(C#N)cccc1[C@@H]1CN2CCN(C(=O)Cc3cnc(-n4cnnn4)nc3)C[C@@H]2CO1 [Example 116, 2-methyl-3-[(3R,9aR)-8-{[2-(1H-tetrazol-1-yl)pyrimidin-5-yl]acetyl}octahydropyrazino[2,1-c] [1,4]oxazin-3-yl]benzonitrile] gave an IC50 of 330 nM.
Cc1nc(-n2cnnn2)ncc1CC(=O)N1CCN2C[C@@H](c3ccc(F)c(C#N)c3C)OC[C@H]2C1 [Example 120, 6-fluoro-2-methyl-3-[(3R9aR)-8-{[4-methyl-2-(1H-tetrazol-1-yl)pyrimidin-5-yl]acetyl}octahydropyrazino[2,1-c][1,4]oxazin-3-yl]benzonitrile] was tested, and the IC50 was 200 nM.
Cc1c([C@@H]2CN3CCN(C(=O)Cc4cnc(-n5cnnn5)nc4)C[C@@H]3CO2)ccc2c1COC2=O [Example 122, 4-methyl-5-[(3R,9aR)-8-{[2-(1H-tetrazol-1-yl)pyrimidin-5-yl]acetyl}octahydropyrazino[2,1-c][1,4]oxazin-3-yl]-2-benzofuran-1(3H)-one] gave an IC50 of 390 nM.
COc1cc(-n2cnnn2)cnc1CC(=O)N1CCN2C[C@@H](c3ccc(F)c(C#N)c3C)OC[C@H]2C1 [Example 124, 6-fluoro-3-[(3R,9aR)-8-{[3-methoxy-5-(1H-tetrazol-1-vl)pvridin-2-yl]acetyl}octahydropyrazino[2,1-c][1,4]oxazin-3-yl]-2-methylbenzonitrile] gave an IC50 of 330 nM.
N#Cc1c(F)ccc([C@H]2CN3CCN(C(=O)Cc4cnc(-n5cnnn5)nc4)C[C@@H]3CO2)c1Cl [Example 126, 2-chloro-6-fluoro-3-[(3S,9aR)-8-{[2-(1H-tetrazol-1-yl)pyrimidin-5-yl]acetyl}octahydropyrazino[2,1-c][1,4]oxazin-3-yl]benzonitrile] was tested, and the IC50 was 140 nM.
Work on Cc1nc(CC(=O)N2CCN3C[C@@H](c4ccc(F)c(C#N)c4C)OC[C@@H]3C2)ccc1-n1cnnn1 [Example 128, 6-fluoro-2-methyl-3-[(3R,9aS)-8-{[6-methyl-5-(1H-tetrazol-1-vl)pvridin-2-yl]acetyl}octahydropyrazino[2,1-c][1,4]oxazin-3-yl]benzonitrile] yielded an IC50 of 180 nM.
Cc1cc(CC(=O)N2CCN3C[C@@H](c4ccc(F)c(C#N)c4C)OC[C@H]3C2)ncc1-n1cnnn1 [Example 129, 6-fluoro-2-methyl-3-[(3R,9aR)-8-{[4-methyl-5-(1H-tetrazol-1-yl)pyridin-2-yl]acetyl}octahydropyrazino[2,1-c][1,4]oxazin-3-yl]benzonitrile] was tested, and the IC50 was 250 nM.
Work on Cc1nc(CC(=O)N2CCN3C[C@H](c4ccc(F)c(C#N)c4C)OC[C@H]3C2)ccc1-n1cnnn1 [Example 131, 6-fluoro-2-methyl-3-[(3S,9aR)-8-{[6-methyl-5-(1H-tetrazol-1-vl)pvridin-2-yl]acetul}octahydropyrazino[2,1-c][1,4]oxazin-3-yl]benzonitrile] yielded an IC50 of 200 nM.
For Cc1cc(CC(=O)N2CCN3C[C@H](c4ccc(F)c(C#N)c4C)OC[C@H]3C2)cnc1-n1cnnn1 [Example 134, 6-fluoro-2-methyl-3-[(3S,9aR)-8-{[5-methyl-6-(1H-tetrazol-1-yl)pyridin-3-yl]acetyl}octahydropyrazino[2,1-c][1,4]oxazin-3-yl]benzonitrile], the IC50 was 280 nM.
Cc1nc(-n2cnnn2)ncc1CC(=O)N1CCN2C[C@@H](c3ccc(F)c(C#N)c3Cl)OC[C@H]2C1 [Example 138, 2-chloro-6-fluoro-3-[(3R,9aR)-8-{[4-methyl-2-(1H-tetrazol-1-vl)pvrimidin-5-yl]acetyl}octahydropyrazino[2,1-c][1,4]oxazin-3-yl]benzonitrile] was tested, and the IC50 was 140 nM.
Compound COc1c([C@H]2CN3CCN(C(=O)Cc4cnc(-n5cnnn5)nc4)C[C@H]3CO2)ccc(F)c1C#N [Example 139, 6-fluoro-2-methoxy-3-[(3S,9aS)-8-{[2-(1H-tetrazol-1-vl)pvrimidin-5-yl]acetyl}octahydropyrazino[2,1-c][1,4]oxazin-3-yl]benzonitrile] has an IC50 of 160 nM.
In the case of COc1c([C@@H]2CN3CCN(C(=O)Cc4cnc(-n5cnnn5)nc4)C[C@H]3CO2)ccc(F)c1C#N [Example 140, 6-fluoro-2-methoxy-3-[(3R,9aS)-8-{[2-(1H-tetrazol-1-vl)pvrimidin-5-yl]acetyl}octahydropyrazino[2,1-c][1,4]oxazin-3-yl]benzonitrile], the IC50 is reported as 120 nM.
For N#Cc1cc([C@@H]2CN3CCN(C(=O)Cc4cnc(-n5cnnn5)nc4)C[C@@H]3CO2)ccc1F [Example 141, 2-fluoro-5-[(3R,9aR)-8-{[2-(1H-tetrazol-1-yl)pyrimidin-5-yl]acetyl}octahydropyrazino[2,1-c][1,4]oxazin-3-yl]benzonitrile], the IC50 was 300 nM.

Same assay, conditions: Thallium Flux IC50
COc1cc([C@@H]2CN3CCN(C(=O)Cc4ccc(-n5cnnn5)nc4)C[C@H]3CO2)cc(F)c1C#N [Example 114, 2-fluoro-6-methoxy-4-[(3R,9aS)-8-{[6-(1H-tetrazol-1-vl)pvridin-3-yl]acetyl}octahydropyrazino[2,1-c][1,4]oxazin-3-yl]benzonitrile] showed an IC50 of 110 nM.
With N#Cc1c(F)cc([C@@H]2CN3CCN(C(=O)Cc4cnc(-n5cnnn5)nc4)C[C@@H]3CO2)cc1F [Example 115, 2,6-difluoro-4-[(3R,9aR)-8-{[2-(1H-tetrazol-1-yl)pyrimidin-5-yl]acetyl}octahydropyrazino[2,1-c][1,4]oxazin-3-yl]benzonitrile] the IC50 was 270 nM.
Work on Cc1c(C#N)cccc1[C@@H]1CN2CCN(C(=O)Cc3ccc(-n4cnnn4)nc3)C[C@@H]2CO1 [Example 117, 2-methyl-3-[(3R,9aR)-8-{[6-(1H-tetrazol-1-yl)pyridin-3-yl]acetyl}octahydropyrazino[2,1-c] [1,4]oxazin-3-yl]benzonitrile] yielded an IC50 of 220 nM.
Cc1nc(-n2cnnn2)ncc1CC(=O)N1CCN2C[C@@H](c3ccc(F)c(C#N)c3C)OC[C@@H]2C1 [Example 118, 6-fluoro-2-methyl-3-[(3R,9aS)-8-{[4-methyl-2-(1H-tetrazol-1-vl)pvrimidin-5-yl]acetyl}octahydropyrazino[2,1-c][1,4]oxazin-3-yl]benzonitrile] gave an IC50 of 120 nM.
With Cc1nc(-n2cnnn2)ncc1CC(=O)N1CCN2C[C@H](c3ccc(F)c(C#N)c3C)OC[C@H]2C1 [Example 119, 6-fluoro-2-methyl-3-[(3S,9aR)-8-{[4-methyl-2-(1H-tetrazol-1-vl)pvrimidin-5-yl]acetyl}octahydropyrazino[2,1-c][1,4]oxazin-3-yl]benzonitrile] the IC50 was 330 nM.
For Cc1c([C@@H]2CN3CCN(C(=O)Cc4cnc(-n5cnnn5)cn4)C[C@@H]3CO2)ccc2c1COC2=O [Example 123, 4-methyl-5-[(3R,9aR)-8-{[5-(1H-tetrazol-1-yl)pyrazin-2-yl]acetyl}octahydropyrazino[2,1-c] [1,4]oxazin-3-yl]-2-benzofuran-1(3H)-one], the IC50 was 690 nM.
In the case of N#Cc1c(F)ccc([C@@H]2CN3CCN(C(=O)Cc4cnc(-n5cnnn5)nc4)C[C@@H]3CO2)c1Cl [Example 125, 2-chloro-6-fluoro-3-[(3R,9aR)-8-{[2-(1H-tetrazol-1-yl)pyrimidin-5-yl]acetyl}octahydropyrazino[2,1-c][1,4]oxazin-3-yl]benzonitrile], the IC50 is reported as 60 nM.
For Cc1nc(CC(=O)N2CCN3C[C@H](c4ccc(F)c(C#N)c4C)OC[C@@H]3C2)ccc1-n1cnnn1 [Example 127, 6-fluoro-2-methyl-3-[(3S,9aS)-8-{[6-methyl-5-(1H-tetrazol-1-vl)pvridin-2-yl]acetyl}octahydropyrazino[2,1-c][1,4]oxazin-3-yl]benzonitrile], the IC50 was 90 nM.
Compound Cc1cc(CC(=O)N2CCN3C[C@H](c4ccc(F)c(C#N)c4C)OC[C@@H]3C2)ncc1-n1cnnn1 [Example 130, 6-fluoro-2-methyl-3-[(3S,9aS)-8-{[4-methyl-5-(1H-tetrazol-1-yl)pyridin-2-yl]acetyl}octahydropyrazino[2,1-c][1,4]oxazin-3-yl]benzonitrile] has an IC50 of 190 nM.
With COc1ccc([C@@H]2CN3CCN(C(=O)Cc4cnc(-n5cnnn5)nc4)C[C@H]3CO2)c(C)c1C#N [Example 135, 6-methoxy-2-methyl-3-[(3R,9aS)-8-{[2-(1H-tetrazol-1-vl)pvrimidin-5-yl]acetyl}octahydropyrazino[2,1-c][1,4]oxazin-3-yl]benzonitrile] the IC50 was 330 nM.
Compound N#Cc1c(F)ccc([C@@H]2CN3CCN(C(=O)Cc4cnc(-n5cnnn5)nc4)C[C@H]3CO2)c1Cl [Example 136, 2-chloro-6-fluoro-3-[(3R,9aS)-8-{[2-(1H-tetrazol-1-yl)pyrimidin-5-yl]acetyl}octahydropyrazino[2,1-c][1,4]oxazin-3-yl]benzonitrile] has an IC50 of 40 nM.
For N#Cc1c(F)ccc([C@H]2CN3CCN(C(=O)Cc4cnc(-n5cnnn5)nc4)C[C@H]3CO2)c1Cl [Example 137, 2-chloro-6-fluoro-3-[(3S,9aS)-8-{[2-(1H-tetrazol-1-yl)pyrimidin-5-yl]acetyl}octahydropyrazino[2,1-c][1,4]oxazin-3-yl]benzonitrile], the IC50 was 60 nM.
